{
  "source": "paper PMC10571957",
  "about": "“αV-Integrin-Dependent Inhibition of Glioblastoma Cell Migration, Invasion and Vasculogenic Mimicry by the uPAcyclin Decapeptide” (Cancers, 2023)",
  "format_in_all_cases": "cell-based, human",
  "key": {"U87-MG cells": {"tested_on": "U87-MG cells", "test": "Wound healing assay, U87-MG", "conditions": "for residual space, % of the initial wound: 24 h (untreated 15%)", "procedure": "The wound healing assay or scratch test was performed as previously reported. Briefly, 6 × 10^3 U87-MG cells were seeded in multiwell-12 plates containing culture inserts for live cell analysis (Ibidi, Gmbh, Martinsried, Germany) and grown to confluence in DMEM/10% FBS for 24 h. After removing the inserts, the cells were pre-treated for 40 min at 37 °C with uPAcyclin or diluents at the indicated concentrations, and then incubated in DMEM/3% FBS for 24 h. The images were taken using the Inverted Microscope Leica DMI6000 DFC 402 (Leica Microsystems, Milan, Italy). A total of 10 × 10^4 C6 cells were grown to confluence in 12-well plates, in the presence of DMEM/10% FBS. Then, the cell monolayers were wounded with a yellow tip, pre-incubated with uPAcyclin (10 pM and 100 nM) or diluents, and incubated in DMEM/2.5% FBS for 16 h. The images were obtained using the Inverted Axiovert 25 Microscope, equipped with the Zen 3.3 Software. To quantitate cell migration, a rectangle covering the wound edges is drawn on the T0 image and is further applied to the single photograms of each sample. The average margin distance is measured at three points and the results are expressed as percentage wound width of the T0 distance, taken as 100%.\nFigure 5 Wound healing assay of U87-MG and C6 cells, in the presence of uPAcyclin. (A) U87-MG cells were grown to confluence in multiwell-12 plates with inserts, pre-incubated with uPAcyclin (10 pM or 100 nM) or diluents for 40 min at 37 °C, and then exposed to 3% FBS, in the presence of uPAcyclin or diluents, as reported. Images were taken at time 0 (T0) and 24 h (T24) and representative images are shown (50× total magnification, scale bar: 250 µm). […] (C) For both U87-MG and C6, the wound width at time 0 is taken as 100% and the wound width at T24 or T16 is calculated as relative to that (* p-value < 0.05; ** p-value < 0.005; *** p-value < 0.001)."}, "U138-MG cells": {"tested_on": "U138-MG cells", "test": "Boyden chamber Matrigel invasion, U138-MG", "conditions": "for invasion, % of basal, average 2 expts: mean of 2 expts; for invasion, % of basal, average expt 1: mean of expt 1; for invasion, % of basal, average expt 2: mean of expt 2; for invasion, % of basal, T-test list: single replicates of both expts", "procedure": "The migration and invasion assays were performed using Boyden chambers and 8 µm pore size PVP-free filters coated with 50 µg/mL of collagen type VI (Sigma), as previously described. For the invasion assays, collagen-coated filters were further coated with 50 µg/mL Matrigel^TM (Sigma). Briefly, 11 × 10^4 U87-MG, 4 × 10^4 U251-MG, or 4 × 10^4 U138-MG/sample were pre-treated for 40 min at 37 °C with the indicated effectors. Then, the cells were allowed to migrate for 3 h or to invade for 5 h at 37 °C toward 5% FBS in DMEM/0.1% BSA. At the end of both assays, the cells on the lower filter surface were fixed, stained with haematoxylin, and counted under an optical microscope (Zeiss Axiophot, Carl Zeiss, Milan, Italy) at 20× magnification. The migration and invasion experiments were conducted in triplicate for U87-MG and in duplicate for U251-MG and U138-MG. The migrated or invaded cells were reported as percentage of basal migration or invasion in the presence of DMEM/0.1% BSA, taken as 100%, and analyzed as reported in Section 2.11.\nFigure 4 Effect of uPAcyclin on matrix invasion of U87-MG, U251-MG, and U138-MG GBM cells. Quantitative analysis of U87-MG (A), U251-MG (B), and U138-MG (C) invasion. A total of 11 × 10^4 U87-MG or […] U251-MG or U138-MG/sample were pre-treated for 40 min at 37 °C with uPAcyclin (100 nM, 1 µM), anti-αV polyclonal (anti-αV-Pclonal) or monoclonal (anti-αV MoAb) antibody, or anti-actin polyclonal antibody (anti-actin), and then assayed in Boyden chambers at 37 °C, either for basal (BSA) or FBS-dependent invasion (5% FBS) for 5 h at 37 °C. Data are expressed as in the legend to Figure 3. Results are expressed as percentages with respect to the basal invasion, considered as 100% (* p-value < 0.05; ** p-value < 0.005; *** p-value < 0.001)."}, "U251-MG cells": {"tested_on": "U251-MG cells", "test": "Cell viability/proliferation (Trypan blue), U251-MG", "conditions": "1 nM or 100 nM, 72–96 h", "procedure": "Cell viability was tested in DMEM/10% FBS, in the presence of 1 nM or 100 nM uPAcyclin, either by Trypan blue exclusion or by thiazolyl blue tetrazolium bromide (MTT) assays, as specified in the figure legends. For the Trypan blue assay, 4 × 10^4 U87-MG, U251-MG, U138-MG, and C6 cells/sample were grown in 12-well plates, and followed for 24, 48 and 72 h. As a negative control, the cells were grown in a serum-free medium. Then, the cells were detached, stained with a 0.2% (w/v) Trypan blue solution, counted using a Burker chamber (T0 = 100%), and reported as number of viable cells/total."}, "[1]": {"conditions": "100 nM, 5% FBS, 5 h, expt 1, duplicates"}, "[2]": {"conditions": "100 nM, 5% FBS, 5 h, expt 2, duplicates"}, "[3]": {"conditions": "1 µM, 5% FBS, 5 h, expt 1, duplicates"}, "[4]": {"conditions": "1 µM, 5% FBS, 5 h, expt 2, duplicates"}},
  "note": "“And” between values parts separate entries of the source, which are not always exact repeats. Equal values may be shown once.",
  "data": [
    {"substance": "Ac-K^1P[ESPPEELK^10]-NH2 (sidechain bridge or staple) [uPAcyclin]", "values": [
      {"measurement": "residual space, % of the initial wound", "setting": "U87-MG cells; 10 pM", "result": 30, "unit": "%"},
      {"measurement": "residual space, % of the initial wound", "setting": "U87-MG cells; 100 nM", "result": 60, "unit": "%"},
      {"measurement": "reduction of wound healing rate closure", "setting": "U87-MG cells; abstract", "result": 50, "unit": "%"},
      {"measurement": "reduction in invasion", "setting": "U138-MG cells; 100 nM, U138-MG, 5% FBS, 5 h", "result": "50–60%"},
      {"measurement": "invaded cell number/field", "setting": "U138-MG cells; [1]", "result": "10 cell number/field and 8 cell number/field"},
      {"measurement": "invasion, % of basal", "setting": "U138-MG cells; [1]", "result": "143% and 114%"},
      {"measurement": "invaded cell number/field", "setting": "U138-MG cells; [2]", "result": "9 cell number/field and 8 cell number/field"},
      {"measurement": "invasion, % of basal", "setting": "U138-MG cells; [2]", "result": "150% and 133%"},
      {"measurement": "invasion, % of basal, average 2 expts", "setting": "U138-MG cells; 100 nM, 5% FBS, 5 h", "result": 135, "unit": "%"},
      {"measurement": "invasion, % of basal, average expt 1", "setting": "U138-MG cells; 100 nM, 5% FBS, 5 h", "result": 129, "unit": "%"},
      {"measurement": "invasion, % of basal, average expt 2", "setting": "U138-MG cells; 100 nM, 5% FBS, 5 h", "result": 142, "unit": "%"},
      {"measurement": "invasion, % of basal, T-test list", "setting": "U138-MG cells; 100 nM", "result": "143 and 114 and 150 and 133"},
      {"measurement": "invasion, in words", "setting": "U138-MG cells; 1 µM, U138-MG, 5% FBS, 5 h", "result": "reduced invasion to basal levels"},
      {"measurement": "invaded cell number/field", "setting": "U138-MG cells; [3]", "result": "7 cell number/field and 6 cell number/field"},
      {"measurement": "invasion, % of basal", "setting": "U138-MG cells; [3]", "result": "100% and 86%"},
      {"measurement": "invaded cell number/field", "setting": "U138-MG cells; [4]", "result": "6 cell number/field and 5 cell number/field"},
      {"measurement": "invasion, % of basal", "setting": "U138-MG cells; [4]", "result": "100% and 83%"},
      {"measurement": "invasion, % of basal, average 2 expts", "setting": "U138-MG cells; 1 µM, 5% FBS, 5 h", "result": 92, "unit": "%"},
      {"measurement": "invasion, % of basal, average expt 1", "setting": "U138-MG cells; 1 µM, 5% FBS, 5 h", "result": 93, "unit": "%"},
      {"measurement": "invasion, % of basal, average expt 2", "setting": "U138-MG cells; 1 µM, 5% FBS, 5 h", "result": 92, "unit": "%"},
      {"measurement": "invasion, % of basal, T-test list", "setting": "U138-MG cells; 1 µM", "result": "100 and 86 and 83"},
      {"measurement": "proliferation/viability", "setting": "U251-MG cells", "result": "unaffected by uPAcyclin, regardless of the concentration employed"}
    ]}
  ]
}
